Tests used:
[1] = biological target: T1, AMPK γ1 subunit (in the α2β2γ1 AMPfret heterotrimer) (Rattus norvegicus, UniProt P80385); test: fluorometric FRET titration of the purified sensor, single-site fit; assay type: binding
T1 construct: gene Prkag1; with AMPK α2 (PRKAA2, Rattus norvegicus) and AMPK β2 (PRKAB2, Homo sapiens)

[2] = biological target: T1, AMPK γ1 subunit (in the α2β2γ1 AMPfret heterotrimer); test: fluorometric FRET titration of the purified sensor, single-site fit; also allosteric activation in kinase assay; assay type: binding
From the text: fluorometric FRET titration of the purified sensor, single-site fit; also allosteric activation in kinase assay on AMPK γ1 subunit (in the α2β2γ1 AMPfret heterotrimer) | AMPfret reports binding of AMP (in absence of ATP) at one or more binding sites

T1 sequence (P80385 whole entry): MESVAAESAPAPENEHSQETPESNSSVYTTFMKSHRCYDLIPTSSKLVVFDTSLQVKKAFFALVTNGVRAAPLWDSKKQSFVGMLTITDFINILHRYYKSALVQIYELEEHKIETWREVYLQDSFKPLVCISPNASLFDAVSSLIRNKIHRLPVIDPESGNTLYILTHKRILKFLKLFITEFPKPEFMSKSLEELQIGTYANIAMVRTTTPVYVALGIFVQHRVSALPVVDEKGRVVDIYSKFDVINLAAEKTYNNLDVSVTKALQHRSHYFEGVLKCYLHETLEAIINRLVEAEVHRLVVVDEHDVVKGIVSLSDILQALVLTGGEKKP
T1 sequence (Q09137 whole entry partner): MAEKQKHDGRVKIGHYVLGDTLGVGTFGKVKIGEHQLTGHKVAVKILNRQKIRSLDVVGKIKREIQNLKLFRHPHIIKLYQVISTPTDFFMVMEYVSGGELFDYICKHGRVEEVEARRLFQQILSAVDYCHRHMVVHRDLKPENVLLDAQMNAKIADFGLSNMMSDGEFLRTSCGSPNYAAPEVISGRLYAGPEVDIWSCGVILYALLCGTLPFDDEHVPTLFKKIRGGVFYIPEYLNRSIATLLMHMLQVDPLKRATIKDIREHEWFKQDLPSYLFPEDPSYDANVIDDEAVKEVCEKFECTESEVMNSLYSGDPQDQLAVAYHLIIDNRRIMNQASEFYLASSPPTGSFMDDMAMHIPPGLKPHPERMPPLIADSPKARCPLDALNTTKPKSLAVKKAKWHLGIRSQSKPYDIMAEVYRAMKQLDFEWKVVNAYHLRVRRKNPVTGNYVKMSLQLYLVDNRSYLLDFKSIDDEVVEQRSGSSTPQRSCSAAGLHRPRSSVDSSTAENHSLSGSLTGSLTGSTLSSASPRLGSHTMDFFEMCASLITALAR
T1 sequence (O43741 whole entry partner): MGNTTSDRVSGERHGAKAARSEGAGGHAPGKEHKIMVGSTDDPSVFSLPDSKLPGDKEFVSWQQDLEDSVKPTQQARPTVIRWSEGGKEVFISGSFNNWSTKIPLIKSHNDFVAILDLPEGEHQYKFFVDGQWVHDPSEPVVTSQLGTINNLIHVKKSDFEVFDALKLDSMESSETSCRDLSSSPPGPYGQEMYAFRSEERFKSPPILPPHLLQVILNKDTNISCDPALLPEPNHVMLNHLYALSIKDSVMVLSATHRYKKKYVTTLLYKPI

Kd [1] | Kd [2] | SMILES
7.5 µM | – | Nc1ncnc2c1ncn2[C@@H]1O[C@H](COP(=O)(O)OP(=O)(O)O)[C@@H](O)[C@H]1O [ADP]
– | ~1.5 µM | Nc1ncnc2c1ncn2[C@@H]1O[C@H](COP(=O)(O)O)[C@@H](O)[C@H]1O [AMP]

— paper PMC6399333, “Synthetic energy sensor AMPfret deciphers adenylate-dependent AMPK activation mechanism” (Nature Communications, 2019)
